Reference: ChEMBL document CHEMBL4837201, “Increased antibacterial properties of indoline-derived phenolic Mannich bases” (Eur J Med Chem, 2021)
≈ marks a conversion by molar mass, not a printed value.

Experiments:
HaCaT [1] = test: (§1) Cytotoxicity against human HaCaT cells assessed as cell viability at 50 uM after 24 hrs by MTT assay; format: cell-based; conditions: hacat, 24 h, 50 µM
HaCaT [2] = test: Cytotoxicity against human HaCaT cells assessed as reduction in cell viability at 50 uM after 24 hrs by MTT assay; format: cell-based
Enterococcus faecalis [3] = test: Antibacterial activity against Enterococcus faecalis ATCC 29212 assessed as inhibition of bacterial growth incubated for 16 to 24 hrs by broth microdilution method; format: functional; conditions: time 16-24 hrs
Enterococcus faecalis [4] = test: Antibacterial activity against vancomycin-resistant Enterococcus faecalis ATCC 51299 assessed as inhibition of bacterial growth incubated for 16 to 24 hrs by broth microdilution method; format: functional; conditions: time 16-24 hrs
[5] = system: Staphylococcus epidermidis; test: Antibacterial activity against Staphylococcus epidermidis ATCC 12228 assessed as inhibition of bacterial growth incubated for 16 to 24 hrs by broth microdilution method; format: functional; conditions: time 16-24 hrs
Staphylococcus aureus [6] = test: Antibacterial activity against Staphylococcus aureus ATCC 6538 assessed as inhibition of bacterial growth incubated for 16 to 24 hrs by broth microdilution method; format: functional; conditions: time 16-24 hrs
[7] = Toxicity in Saccharomyces cerevisiae ATCC 2601 assessed as reduction in cell viability measured after 24 hrs by microdilution method; conditions: for IC50 at 24 h: Saccharomyces cerevisiae, Saccharomyces cerevisiae ATCC 2601 cells
Staphylococcus aureus [8] = test: Antibacterial activity against methicillin-sensitive Staphylococcus aureus ATCC 25923 assessed as inhibition of bacterial growth incubated for 16 to 24 hrs by broth microdilution method; format: functional; conditions: time 16-24 hrs
Staphylococcus aureus [9] = test: Antibacterial activity against methicillin-resistant Staphylococcus aureus CIP106760 assessed as inhibition of bacterial growth incubated for 16 to 24 hrs by broth microdilution method; format: functional; conditions: time 16-24 hrs
Bacillus subtilis = test: Antibacterial activity against Bacillus subtilis ATCC 6633 assessed as inhibition of bacterial growth incubated for 16 to 24 hrs by broth microdilution method; format: functional; conditions: time 16-24 hrs
[10] = as §1; format: cell-based; conditions: HaCaT cells, read-out: Activity
Staphylococcus aureus [11] = test: Antibacterial activity against Staphylococcus aureus assessed as inhibition of bacterial growth incubated for 16 to 24 hrs by broth microdilution method; format: functional; conditions: time 16-24 hrs
Listeria monocytogenes = test: Antibacterial activity against Listeria monocytogenes assessed as inhibition of bacterial growth incubated for 16 to 24 hrs by broth microdilution method; format: functional; conditions: time 16-24 hrs
[12] = system: Staphylococcus epidermidis; test: Antibacterial activity against Staphylococcus epidermidis assessed as inhibition of bacterial growth incubated for 16 to 24 hrs by broth microdilution method; format: functional; conditions: time 16-24 hrs
Enterococcus faecalis [13] = test: Antibacterial activity against Enterococcus faecalis assessed as inhibition of bacterial growth incubated for 16 to 24 hrs by broth microdilution method; format: functional; conditions: time 16-24 hrs
Enterococcus faecium = test: Antibacterial activity against Enterococcus faecium assessed as inhibition of bacterial growth incubated for 16 to 24 hrs by broth microdilution method; format: functional; conditions: time 16-24 hrs
[14] = Antioxidant activity assessed as DPPH radical scavenging activity at 10 ug/ml by DPPH assay relative to control; format: functional; conditions: dose 10.0 µg/ml
[15] = Toxicity in Artemia salina assessed as mortality at 10 ug/ml measured after 24 hrs; conditions: at 10 µg/mL
MRC5 = test: Cytotoxicity against human MRC5 cells assessed as reduction in cell viability measured after 24 hrs by MTT assay; format: cell-based; conditions: MRC5, 24 h

| Compound | Activity (HaCaT [2]) | MBC (Enterococcus faecalis [3]) [µM] | MIC (Enterococcus faecalis [3]) [µM] | MBC (Enterococcus faecalis [4]) [µM] | MIC (Enterococcus faecalis [4]) [µM] | MBC [5] [µM] | MIC [5] [µM] | MBC (Staphylococcus aureus [6]) [µM] | MIC (Staphylococcus aureus [6]) [µM] | IC50 at 24 h [7] [µM] | MBC (Staphylococcus aureus [8]) [µM] | MIC (Staphylococcus aureus [8]) [µM] | MBC (Staphylococcus aureus [9]) [µM] | MIC (Staphylococcus aureus [9]) [µM] | MBC (Bacillus subtilis) [µM] | MIC (Bacillus subtilis) [µM] | other results |
| --- | --- | --- | --- | --- | --- | --- | --- | --- | --- | --- | --- | --- | --- | --- | --- | --- | --- |
| Cc1ccccc1C(c1cc([N+](=O)[O-])ccc1O)N1CCc2cc(Br)ccc21 (stereo not given) | Toxic | 8.89 (≈ 3.91 µg/mL) | 1.11 (≈ 0.488 µg/mL) | 142 (≈ 62.4 µg/mL) | 4.45 (≈ 1.95 µg/mL) | < 1.18 | < 1.18 | 4.45 (≈ 1.95 µg/mL) | 1.11 (≈ 0.488 µg/mL) | > 100 | 35.6 (≈ 15.6 µg/mL) | 2.22 (≈ 0.975 µg/mL) | 1.11 (≈ 0.488 µg/mL) | 1.11 (≈ 0.488 µg/mL) | < 1.18 | < 1.18 | Activity (HaCaT [1]): Toxic |
| Cc1ccc(C(c2cc([N+](=O)[O-])ccc2O)N2CCc3cc([N+](=O)[O-])ccc32)cc1 (stereo not given) | – | 9.64 (≈ 3.91 µg/mL) | 1.2 (≈ 0.486 µg/mL) | 154 (≈ 62.4 µg/mL) | 2.41 (≈ 0.977 µg/mL) | 37.7 (≈ 15.3 µg/mL) | 18.9 (≈ 7.66 µg/mL) | 77.1 (≈ 31.3 µg/mL) | 19.3 (≈ 7.82 µg/mL) | > 100 | 38.6 (≈ 15.6 µg/mL) | 1.2 (≈ 0.486 µg/mL) | 4.82 (≈ 1.95 µg/mL) | 1.2 (≈ 0.486 µg/mL) | 37.7 (≈ 15.3 µg/mL) | 18.9 (≈ 7.66 µg/mL) | viability at 24 h, 50 µM [10]: 94%; MIC (Staphylococcus aureus [11]): 9.64 µM (≈ 3.91 µg/mL); MIC (Listeria monocytogenes): 9.64 µM (≈ 3.91 µg/mL); MIC [12]: 9.64 µM (≈ 3.91 µg/mL); MIC (Enterococcus faecalis [13]): 19.3 µM (≈ 7.81 µg/mL); MIC (Enterococcus faecium): 9.64 µM (≈ 3.91 µg/mL); Activity [14]: 8% |
| Cc1ccc(C(c2cc([N+](=O)[O-])ccc2O)N2CCc3cc(Br)ccc32)cc1 (stereo not given) | – | 81.1 (≈ 35.6 µg/mL) | 5.07 (≈ 2.23 µg/mL) | 162 (≈ 71.2 µg/mL) | 10.1 (≈ 4.44 µg/mL) | 4.71 (≈ 2.07 µg/mL) | 9.43 (≈ 4.14 µg/mL) | < 142 | 17.8 (≈ 7.82 µg/mL) | – | 81.1 (≈ 35.6 µg/mL) | 10.1 (≈ 4.44 µg/mL) | 20.3 (≈ 8.92 µg/mL) | 5.07 (≈ 2.23 µg/mL) | 9.43 (≈ 4.14 µg/mL) | 4.71 (≈ 2.07 µg/mL) | Activity [14]: > 80% |
| O=[N+]([O-])c1ccc(O)c(C(c2ccc(C(F)(F)F)cc2)N2CCc3ccccc32)c1 (stereo not given) | Non-Toxic | 9.43 (≈ 3.91 µg/mL) | 1.18 (≈ 0.489 µg/mL) | 151 (≈ 62.6 µg/mL) | 1.18 (≈ 0.489 µg/mL) | < 1.18 | < 1.18 | 2.36 (≈ 0.978 µg/mL) | 1.18 (≈ 0.489 µg/mL) | > 100 | 37.7 (≈ 15.6 µg/mL) | 1.18 (≈ 0.489 µg/mL) | 1.18 (≈ 0.489 µg/mL) | 1.18 (≈ 0.489 µg/mL) | < 1.18 | < 1.18 | Activity (HaCaT [1]): Non-Toxic; mortality at 24 h, 10 ug/ml [15]: 8%; MIC (Staphylococcus aureus [11]): 1.18 µM (≈ 0.489 µg/mL); MIC (Listeria monocytogenes): 1.18 µM (≈ 0.489 µg/mL); MIC [12]: 1.18 µM (≈ 0.489 µg/mL); IC50 (MRC5): 1.7 µM; MIC (Enterococcus faecalis [13]): 2.36 µM (≈ 0.978 µg/mL); MIC (Enterococcus faecium): 2.36 µM (≈ 0.978 µg/mL) |
| O=[N+]([O-])c1ccc(O)c(C(c2ccc(Cl)cc2)N2CCc3ccccc32)c1 (stereo not given) | – | > 9.86 | 1.23 (≈ 0.468 µg/mL) | 19.7 (≈ 7.5 µg/mL) | 1.23 (≈ 0.468 µg/mL) | – | – | 2.47 (≈ 0.941 µg/mL) | 1.23 (≈ 0.468 µg/mL) | > 100 | 9.86 (≈ 3.75 µg/mL) | 2.47 (≈ 0.941 µg/mL) | < 1.23 | 1.23 (≈ 0.468 µg/mL) | – | – | mortality at 24 h, 10 ug/ml [15]: < 15% |
| COc1ccc2c(c1)CCN2C(c1ccc(C)cc1)c1cc([N+](=O)[O-])ccc1O (stereo not given) | – | 160 (≈ 62.5 µg/mL) | 10 (≈ 3.9 µg/mL) | 160 (≈ 62.5 µg/mL) | 20 (≈ 7.81 µg/mL) | 4.71 (≈ 1.84 µg/mL) | < 1.18 | 80 (≈ 31.2 µg/mL) | 20 (≈ 7.81 µg/mL) | – | 160 (≈ 62.5 µg/mL) | 20 (≈ 7.81 µg/mL) | 40 (≈ 15.6 µg/mL) | 10 (≈ 3.9 µg/mL) | 4.71 (≈ 1.84 µg/mL) | < 1.18 | – |
| O=[N+]([O-])c1ccc2c(c1)CCN2C(c1ccc(C(F)(F)F)cc1)c1cc([N+](=O)[O-])ccc1O (stereo not given) | Toxic | 8.89 (≈ 4.08 µg/mL) | 1.11 (≈ 0.51 µg/mL) | 142 (≈ 65.2 µg/mL) | 4.45 (≈ 2.04 µg/mL) | 2.36 (≈ 1.08 µg/mL) | < 1.18 | – | – | 292 | 35.6 (≈ 16.4 µg/mL) | 2.22 (≈ 1.02 µg/mL) | 1.11 (≈ 0.51 µg/mL) | 1.11 (≈ 0.51 µg/mL) | 18.9 (≈ 8.68 µg/mL) | 9.43 (≈ 4.33 µg/mL) | IC50 (MRC5): 5.8 µM |
| NYSTATIN | – | – | – | – | – | – | – | – | – | – | – | – | – | – | – | – | IC50 [7]: 3.31 µM |
